Experimental data taken from patent US12612409B2, “Pyrrolopyrimidines as CFTR potentiators” (Cystic Fibrosis Foundation, priority 2016, dated 2026).

Columns and labels:
[1] = biological target: T1, recombinant F508del V470 CFTR in Fischer rat thyroid (FRT) cells (Homo sapiens, UniProt P13569, DEL508-508); test: FRT ion flux assay of F508del CFTR potentiation; type: cell-based; details: FRT cells expressing F508del V470 CFTR, forskolin 20 uM, 27° C. pre-incubation
T1 construct: expressed in transfected cells
How it was run: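 FRT cells co-expressing F508del V470 CFTR and halide-sensitive YFP, temperature-corrected at 27° C for 16-24 h, then treated 30 min with compound plus 20 uM forskolin. Iodide addition quenches YFP, read after ~21 s; ratio scaled to DMSO (0%) and positive control potentiator (100%).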

[2] = biological target: T2, CFTR in F508del/F508del primary CF hBE cells (Homo sapiens, UniProt P13569, DEL508-508); test: Ussing chamber electrophysiology assay of CFTR potentiation in F508del/F508del CF bronchial epithelial cells (27° C.); type: cell-based
T2 construct: Primary cystic fibrosis human bronchial epithelial (CF hBE) cells were expanded and cultured; endogenous in cells; host or cells: primary CF human bronchial epithelial cells, genotype F508del/F508del
How it was run: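 Well-differentiated primary CF hBE cells (>30 days air/liquid interface) in Ussing chambers, HEPES saline both sides, voltage clamped to zero. Amiloride 30 uM, forskolin 10 uM, four rising compound concentrations, then CFTRinh-172 20 uM added at 20-25 min intervals. Short-circuit current scaled to DMSO (0%) and a positive control potentiator maximum (100%).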

T2 sequence (P13569 with tags, fused parts or gaps DEL508-508): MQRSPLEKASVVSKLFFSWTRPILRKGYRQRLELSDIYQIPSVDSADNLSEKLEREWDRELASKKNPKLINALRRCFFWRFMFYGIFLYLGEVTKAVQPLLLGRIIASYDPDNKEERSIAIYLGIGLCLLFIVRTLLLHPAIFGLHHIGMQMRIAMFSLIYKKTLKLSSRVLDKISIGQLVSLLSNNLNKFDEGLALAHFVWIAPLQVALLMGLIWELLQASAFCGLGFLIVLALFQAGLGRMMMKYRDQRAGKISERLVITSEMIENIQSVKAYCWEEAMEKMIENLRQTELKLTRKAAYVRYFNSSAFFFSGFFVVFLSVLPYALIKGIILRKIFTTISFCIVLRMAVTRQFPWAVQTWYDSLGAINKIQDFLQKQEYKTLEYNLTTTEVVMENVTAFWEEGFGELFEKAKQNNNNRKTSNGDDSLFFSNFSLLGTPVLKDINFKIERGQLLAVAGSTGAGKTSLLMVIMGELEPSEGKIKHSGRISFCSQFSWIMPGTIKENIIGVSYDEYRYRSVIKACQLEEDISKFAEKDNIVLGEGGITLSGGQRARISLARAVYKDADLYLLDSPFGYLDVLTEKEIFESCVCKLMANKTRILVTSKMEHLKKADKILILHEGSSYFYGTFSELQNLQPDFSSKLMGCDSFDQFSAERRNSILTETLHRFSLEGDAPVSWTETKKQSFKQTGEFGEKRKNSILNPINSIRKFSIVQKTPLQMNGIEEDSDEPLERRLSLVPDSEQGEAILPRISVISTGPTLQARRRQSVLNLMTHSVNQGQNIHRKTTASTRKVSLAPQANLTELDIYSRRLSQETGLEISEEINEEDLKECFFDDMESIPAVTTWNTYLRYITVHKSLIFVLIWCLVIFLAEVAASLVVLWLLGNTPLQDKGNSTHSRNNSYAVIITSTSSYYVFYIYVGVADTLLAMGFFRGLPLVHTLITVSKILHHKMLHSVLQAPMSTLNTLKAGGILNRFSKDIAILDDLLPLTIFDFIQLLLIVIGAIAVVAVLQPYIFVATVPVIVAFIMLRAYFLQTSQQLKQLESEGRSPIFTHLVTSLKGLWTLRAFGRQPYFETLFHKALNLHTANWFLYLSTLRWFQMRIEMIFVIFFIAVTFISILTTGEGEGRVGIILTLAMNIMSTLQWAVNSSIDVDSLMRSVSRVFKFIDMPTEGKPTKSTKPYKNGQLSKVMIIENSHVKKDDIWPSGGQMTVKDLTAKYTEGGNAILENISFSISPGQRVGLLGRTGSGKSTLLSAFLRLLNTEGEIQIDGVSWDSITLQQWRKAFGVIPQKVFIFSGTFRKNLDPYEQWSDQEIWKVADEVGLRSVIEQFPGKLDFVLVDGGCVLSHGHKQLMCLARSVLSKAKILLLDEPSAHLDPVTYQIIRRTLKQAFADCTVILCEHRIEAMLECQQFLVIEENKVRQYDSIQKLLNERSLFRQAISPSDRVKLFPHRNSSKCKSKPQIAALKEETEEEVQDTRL
T1 sequence (P13569 with tags, fused parts or gaps DEL508-508): as above

Row | EC50 [1] | EC50 [2] | SMILES
1 | 36.2 nM | 75.8 nM | COc1ncccc1-c1cn(C(C)c2cn(-c3ccccc3F)nn2)c2ncnc(N)c12 (single isomer, unassigned; enantiomer 2) [Example 114, (+) 7-{1-[1-(2-Fluorophenyl)-1H-1,2,3-triazol-4-yl]ethyl}-5-(2-methoxypyridin-3-yl)-7H-pyrrolo[2,3-d]pyrimidin-4-amine, enantiomer 2]
2 | 226 nM | 238 nM | COc1cccnc1-c1cn(Cc2cn(-c3ccccc3F)nn2)c2ncnc(N)c12 [Example 207, 7-{[1-(2-fluorophenyl)-1H-1,2,3-triazol-4-yl]methyl}-5-(3-methoxypyridin-2-yl)-7H-pyrrolo[2,3-d]pyrimidin-4-amine]
3 | 56 nM | 38.8 nM | CCC(c1cn(-c2ccccc2F)nn1)n1cc(C2CC2)c2c(N)ncnc21 (centres unmarked) [Example 236, 5-cyclopropyl-7-{1-[1-(2-fluorophenyl)-1H-1,2,3-triazol-4-yl]propyl}-7H-pyrrolo[2,3-d]pyrimidin-4-amine]
4 | 313 nM | 60.2 nM | Nc1ncnc2c1c(-c1ccc(Cl)cc1)cn2Cc1cnn(-c2ccccc2F)c1 [Example 262, 5-(4-Chlorophenyl)-7-{[1-(2-fluorophenyl)-1H-pyrazol-4-yl]methyl}-7H-pyrrolo[2,3-d]pyrimidin-4-amine]
5 | 74.9 nM | 131 nM | CCC(c1cn(-c2ccc(F)c(F)c2)nn1)n1cc(-c2cnc(C(F)F)nc2)c2c(N)ncnc21 (single isomer, unassigned; enantiomer 2) [Example 313, 5-[2-(Difluoromethyl)pyrimidin-5-yl]-7-{1-[1-(3,4-difluorophenyl)-1H-1,2,3-triazol-4-yl]propyl}-7H-pyrrolo[2,3-d]pyrimidin-4-amine, enantiomer 2]
6 | 659 nM | 111 nM | CC(C)c1cc(Cn2cc(-c3ccc(Cl)cc3)c3c(N)ncnc32)on1 [Example 283, 5-(4-Chlorophenyl)-7-{[3-(propan-2-yl)-1,2-oxazol-5-yl]methyl}-7H-pyrrolo[2,3-d]pyrimidin-4-amine]
7 | 24.6 nM | 9 nM | CCC(c1cn(-c2ccc(F)cc2F)nn1)n1cc(-c2cnc(OC)c(F)c2)c2c(N)ncnc21 (single isomer, unassigned; enantiomer 2) [Example 166, 7-{1-[1-(2,4-Difluorophenyl)-1H-1,2,3-triazol-4-yl]propyl}-5-(5-fluoro-6-methoxypyridin-3-yl)-7H-pyrrolo[2,3-d]pyrimidin-4-amine, enantiomer 2]
8 | 259 nM | 64.7 nM | CC(c1cn(CC2CCC2)nn1)n1cc(-c2ccc(Cl)cc2)c2c(N)ncnc21 (centres unmarked) [Example 255, 5-(4-Chlorophenyl)-7-{1-[1-(cyclobutylmethyl)-1H-1,2,3-triazol-4-yl]ethyl}-7H-pyrrolo[2,3-d]pyrimidin-4-amine]
9 | 21.6 nM | 18.9 nM | CCC(c1c[nH]c(-c2ccc(F)cc2F)n1)n1cc(-c2cnc(C(F)(F)F)nc2)c2c(N)ncnc21 (single isomer, unassigned; enantiomer 1) [Example 177, 7-{1-[2-(2,4-Difluorophenyl)-2H-imidazol-4-yl]propyl}-5-[2-(trifluoromethyl)pyrimidin-5-yl]-7H-pyrrolo[2,3-d]pyrimidin-4-amine, enantiomer 1]
10 | 11.1 nM | 7.23 nM | CCC(c1cn(-c2ccccc2F)nn1)n1cc(-c2cc(F)cnc2OC)c2c(N)ncnc21 (centres unmarked) [Example 223, 7-{1-[1-(2-Fluorophenyl)-1H-1,2,3-triazol-4-yl]propyl}-5-(5-fluoro-2-methoxypyridin-3-yl)-7H-pyrrolo[2,3-d]pyrimidin-4-amine]
11 | 623 nM | 282 nM | CCC(c1cn(-c2ccccc2F)nn1)n1cc(-c2ccc(Cl)cc2)c2c(N)ncnc21 (single isomer, unassigned; enantiomer 1) [Example 131, 5-(4-Chlorophenyl)-7-{1-[1-(2-fluorophenyl)-1H-1,2,3-triazol-4-yl]propyl}-7H-pyrrolo[2,3-d]pyrimidin-4-amine, enantiomer 1]
12 | 922 nM | 798 nM | COc1ncccc1-c1cn(Cc2cn(-c3ccccc3F)nn2)c2nc(C)nc(N)c12 [Example 202, 7-{[1-(2-Fluorophenyl)-1H-1,2,3-triazol-4-yl]methyl}-5-(2-methoxypyridin-3-yl)-2-methyl-7H-pyrrolo[2,3-d]pyrimidin-4-amine]
13 | 362 nM | 430 nM | CCC(c1cn(-c2cc(F)ccc2F)nn1)n1cc(-c2cncnc2OC)c2c(N)ncnc21 (single isomer, unassigned; enantiomer 2) [Example 308, (−) 7-{1-[1-(2,5-Difluorophenyl)-1H-1,2,3-triazol-4-yl]propyl}-5-(4-methoxypyrimidin-5-yl)-7H-pyrrolo[2,3-d]pyrimidin-4-amine, enantiomer 2]
14 | 90.6 nM | 39.6 nM | CC(c1cn(-c2ncccc2F)nn1)n1cc(-c2ccc(OC3CC3)cc2)c2c(N)ncnc21 (centres unmarked) [Example 214, 5-[4-(Cyclopropoxy)phenyl]-7-{1-[1-(3-fluoropyridin-2-yl)-1H-1,2,3-triazol-4-yl]ethyl}-7H-pyrrolo[2,3-d]pyrimidin-4-amine]
15 | 190 nM | 135 nM | CCC(c1cn(-c2ccccc2F)nn1)n1cc(-c2cncnc2OC)c2c(N)nc(C)nc21 (single isomer, unassigned; enantiomer 2) [Example 304, (−) 7-{1-[1-(2-fluorophenyl)-1H-1,2,3-triazol-4-yl]propyl}-5-(4-methoxypyrimidin-5-yl)-2-methyl-7H-pyrrolo[2,3-d]pyrimidin-4-amine, enantiomer 2]
16 | 754 nM | 541 nM | CCC(c1cn(-c2ccccc2F)nn1)n1cc(C2CC2)c2c(N)ncnc21 (single isomer, unassigned; enantiomer 2) [Example 316, (+) 5-Cyclopropyl-7-{1-[1-(2-fluorophenyl)-1H-1,2,3-triazol-4-yl]propyl}-7H-pyrrolo[2,3-d]pyrimidin-4-amine, enantiomer 2]
17 | 343 nM | 295 nM | Cc1nc(N)c2c(-c3ccc(Cl)cc3)cn(C(C)c3cn(-c4ccccc4F)nn3)c2n1 (centres unmarked) [Example 209, 5-(4-Chlorophenyl)-7-{1-[1-(2-fluorophenyl)-1H-1,2,3-triazol-4-yl]ethyl}-2-methyl-7H-pyrrolo[2,3-d]pyrimidin-4-amine]
18 | 566 nM | 614 nM | CC(c1cn(-c2ccccc2F)nn1)n1cc(-c2ccc(C#N)c(F)c2)c2c(N)ncnc21 (single isomer, unassigned; enantiomer 1) [Example 115, 4-(4-Amino-7-{1-[1-(2-fluorophenyl)-1H-1,2,3-triazol-4-yl]ethyl}-7H-pyrrolo[2,3-d]pyrimidin-5-yl)-2-fluorobenzonitrile, enantiomer 1]
19 | 50 nM | 35.9 nM | CC(c1cn(-c2ccccc2F)nn1)n1cc(-c2cc(F)cc(Cl)c2)c2c(N)ncnc21 (centres unmarked) [Example 99, 5-(3-Chloro-5-fluorophenyl)-7-{1-[1-(2-fluorophenyl)-1H-1,2,3-triazol-4-yl]ethyl}-7H-pyrrolo[2,3-d]pyrimidin-4-amine]
20 | 49.9 nM | 33.8 nM | CCC(c1cn(-c2ccc(F)c(F)c2)nn1)n1c(C#N)c(-c2cnc(C(F)(F)F)nc2)c2c(N)ncnc21 (single isomer, unassigned; enantiomer 1) [Example 322, 4-Amino-7-{1-[1-(3,4-difluorophenyl)-1H-1,2,3-triazol-4-yl]propyl}-5-[2-(trifluoromethyl)pyrimidin-5-yl]-7H-pyrrolo[2,3-d]pyrimidine-6-carbonitrile, enantiomer 1]
21 | 14.1 nM | 5.48 nM | CCC(c1cnn(-c2ccc(F)cc2F)c1)n1c(C#N)c(-c2cnc(C(F)(F)F)nc2)c2c(N)ncnc21 (single isomer, unassigned) [Example 20, 4-Amino-7-{1-[1-(2,4-difluorophenyl)-1H-pyrazol-4-yl]propyl}-5-[2-(trifluoromethyl)pyrimidin-5-yl]-7H-pyrrolo[2,3-d]pyrimidine-6-carbonitrile]
22 | 185 nM | 389 nM | Nc1ncnc2c1c(C1CC1)cn2C1(c2cn(-c3ccccc3F)nn2)CC1 [Example 295, 5-Cyclopropyl-7-{1-[1-(2-fluorophenyl)-1H-1,2,3-triazol-4-yl]cyclopropyl}-7H-pyrrolo[2,3-d]pyrimidin-4-amine]
23 | 539 nM | 659 nM | Cn1ncc2cc(-c3cn(Cc4cn(-c5ccccc5F)nn4)c4ncnc(N)c34)ccc21 [Example 86, 7-{[1-(2-Fluorophenyl)-1H-1,2,3-triazol-4-yl]methyl}-5-(1-methyl-1H-indazol-5-yl)-7H-pyrrolo[2,3-d]pyrimidin-4-amine]
24 | 29.3 nM | 26.7 nM | CCC(c1cn(-c2ccccc2F)nn1)n1cc(C2CC2)c2c(N)ncnc21 (single isomer, unassigned; enantiomer 1) [Example 173, (−) 5-Cyclopropyl-7-{1-[1-(2-fluorophenyl)-1H-1,2,3-triazol-4-yl]propyl}-7H-pyrrolo[2,3-d]pyrimidin-4-amine, enantiomer 1]
25 | 186 nM | 57 nM | COc1cc(C#N)cc(-c2cn(Cc3cn(-c4ccccc4F)nn3)c3ncnc(N)c23)c1 [Example 72, 3-(4-Amino-7-{[1-(2-fluorophenyl)-1H-1,2,3-triazol-4-yl]methyl}-7H-pyrrolo[2,3-d]pyrimidin-5-yl)-5-methoxybenzonitrile]
